Laboratory results from paper PMC6273913, “New α-Methylene-γ-Butyrolactone Derivatives as Potential Fungicidal Agents: Design, Synthesis and Antifungal Activities” (Molecules, 2016).
Read-outs that look alike come from different tables or passages of the source.

Assays:
B. cinerea = test: Spore germination assay, fungicidal activity against B. cinerea; format: cell-based, Botrytis cinerea; conditions: Botrytis cinerea, in vitro, n = 3
Method: (§1) The fungal pathogens C. lagenarium and B. cinerea was provided by the Agricultural Culture Collection of China (Yangling, Shaanxi, China). C. lagenarium was cultured for 2 weeks at 25 ± 1 °C on potato dextrose agar (PDA) while B. cinerea was cultured at 20 °C on the same medium after being retrieved from the storage tube. Plates were flooded with sterile distilled water, and then conidia were scraped with a glass rod. Mycelial debris was removed by filtration. The spores were harvested and suspended in sterile distilled water containing 0.1% (v/v) Tween 20. The concentration of the spore suspension was adjusted to 1.0 × 10^6 spores/mL with sterilized distilled water following.
(§2) The tested samples (10.0 mg) dissolved in acetone (0.1 mL) were diluted with sterile distilled water to prepare 10.0 mL stock solution, which was further diluted to prepare test solutions in which the final concentration of acetone was <1% (v/v). A series of concentrations of tested samples and one control (1% acetone with sterile distilled water) were separately tested for spore germination of C. lagenarium or B. cinerea. The samples were inoculated with spore suspension of C. lagenarium or B. cinerea containing 1.0 × 10^6 spores/mL. Aliquots of 10 μL of prepared spore suspension were placed on separate glass slides in triplicate. Slides containing the spores were incubated in a moisture chamber at 25 °C for 6~8 h. Each slide was then observed under the microscope for spore germination. Spores were considered to have germinated if the length of the germ tube was at least half the length of the spore. Afterward, spore germination was stopped by applying a drop of lactophenol-cotton blue to the inoculation sites on plates. The numbers of generated spores were counted under a microscope (Olympus BX61, Tokyo, Japan), and the percentage of germinated spores was calculated. Chlorothalonil was used as the positive control.

HepG2 cell line = test: Cytotoxic activity against human tumor cells line (HepG2); format: cell-based
C. lagenarium = test: Spore germination assay, fungicidal activity against C. lagenarium; format: cell-based, Colletotrichum lagenarium; conditions: Colletotrichum orbiculare
Method: as §1, §2

[1] = Table 1, from IC50 in μM, read-out: pIC50, C. lagenarium (converted)
[2] = Table 2, fungicidal activity against C. lagenarium used for QSAR, read-out: pIC50 (converted)
[3] = Table 4, experimental, C. lagenarium, read-out: Exp. pIC50 (converted)
[4] = Table 6, read-out: IC50 (μM) (against C. lagenarium)
[5] = in vitro, spore germination, n = 3, read-out: IC50, C. lagenarium

Row | melting point | SMILES | IC50 (B. cinerea) | IC50 (HepG2 cell line) | IC50 (C. lagenarium; [1]) | IC50 (C. lagenarium; [2]) | IC50 (C. lagenarium; [3]) | IC50 (C. lagenarium; [4]) | IC50 (C. lagenarium; [5])
1 | 184.5 to 185.2 °C | C=C1CC(c2ccc(OC(=O)c3ccc(OC)cc3)cc2)OC1=O (stereo not drawn) [Compound 4o, 4-[4-(4-Methoxylbenzoyloxy)phenyl]-2-methylenebutyrolactone] | 231 µM | 25 µM | 219 µM | 219 µM | 219 µM | 219 µM | 219 µM
2 | 182.6 to 183.3 °C | C=C1CC(c2cccc(OC(=O)c3ccc(OC)cc3)c2)OC1=O (stereo not drawn) [Compound 6l, 4-[3-(4-Methoxybenzoyloxy)phenyl]-2-methylenebutyrolactone] | 179 µM | 58.6 µM | 154 µM | 154 µM | 154 µM | 154 µM | 154 µM
3 | 176.5 to 176.8 °C | C=C1CC(c2ccc(OC(=O)c3cccc(Br)c3)cc2)OC1=O (stereo not drawn) [Compound 4e, 4-[4-(3-Bromobenzoyloxy)phenyl]-2-methylenebutyrolactone] | 30.2 µM | 21.7 µM | 8.77 µM | 8.77 µM | 8.77 µM | 8.76 µM | 8.76 µM
